One block for each compound: values may come before it.
Assays:
[1] = tested on: MCF7; assay: Cytotoxicity against human MCF7 cells assessed as cell growth inhibition incubated for 72 hrs by SRB assay; type: functional, cell-based; conditions: MCF7, 72 h
[2] = tested on: MCF7; assay: Antiproliferative activity against human MCF7 cells assessed as inhibition of cell growth measured after 72 hrs by MTT assay; type: functional, cell-based; conditions: MCF7, 72 h
[3] = tested on: MCF7; assay: Cytotoxicity against human MCF7 cells assessed as reduction in cell growth incubated for 72 hrs by MTT assay; type: functional, cell-based; conditions: MCF7, 72 h
[4] = Cytotoxicity against hTERT Lung Fibroblast cells assessed as reduction in cell growth incubated for 72 hrs by MTT assay; type: toxicity, cell-based; conditions: human
[5] = tested on: HCT-116; assay: Anticancer activity against human HCT-116 cells assessed as reduction in cell viability incubated for 48 hrs by MTT assay; type: functional, cell-based; conditions: HCT-116, 48 h
[6] = tested on: MCF7; assay: Anticancer activity against human MCF7 cells assessed as reduction in cell viability incubated for 48 hrs by MTT assay; type: functional, cell-based; conditions: MCF7, 48 h
[7] = tested on: PC-3; assay: Cytotoxicity against human PC-3 cells assessed as reduction in cell growth incubated for 3 days by MTT assay; type: functional, cell-based; conditions: PC-3, 72 h
[8] = tested on: MCF7; assay: Antiproliferative activity against human MCF7 cells assessed as reduction in cell growth incubated for 24 hrs by MTT assay; type: functional, cell-based; conditions: MCF7, 24 h
[9] = tested on: T47D; assay: Cytotoxicity against human T47D cells assessed as reduction in cell growth incubated for 24 hrs by MTT assay; type: functional, cell-based
[10] = tested on: MCF7; assay: Cytotoxicity against human MCF7 cells assessed as reduction in cell growth incubated for 24 hrs by MTT assay; type: functional, cell-based; conditions: MCF7, 24 h
[11] = tested on: SNB-19; assay: Cytotoxicity against human SNB-19 cells assessed as reduction in cell growth incubated for 24 hrs by MTT assay; type: functional, cell-based; conditions: SNB-19, 24 h
[12] = tested on: MCF7; assay: Antiproliferative activity against human MCF7 cells assessed as reduction in cell viability incubated for 24 hrs by SRB assay; type: functional, cell-based; conditions: MCF7, 24 h
[13] = tested on: SW-620; assay: Antiproliferative activity against human SW620 cells assessed as inhibition of cell growth measured after 72 hrs by MTT assay; type: functional, cell-based; conditions: SW-620, 72 h
[14] = tested on: HeLa; assay: Cytotoxicity against human HeLa cells by MTT assay; type: functional, cell-based
[15] = tested on: Huh-7; assay: Cytotoxicity against human Huh-7 cells assessed as cell growth inhibition incubated for 72 hrs by SRB assay; type: functional, cell-based; conditions: Huh-7, 72 h
[16] = tested on: HCT-116; assay: Cytotoxicity against human HCT-116 cells assessed as reduction in cell viability measured after 48 hrs by MTT assay; type: functional, cell-based; conditions: HCT-116, 48 h
[17] = tested on: HCT-116; assay: Cytotoxicity against human HCT-116 cells assessed as reduction in cell viability incubated for 24 hrs by MTT assay; type: functional, cell-based; conditions: HCT-116, 24 h
[18] = tested on: NCI-H1650; assay: Antiproliferative activity against human NCI-H1650 cells assessed as reduction in cell growth incubated for 72 hrs by cell-titer glo assay; type: functional, cell-based; conditions: NCI-H1650, 72 h
[19] = tested on: NCI-H1975; assay: Antiproliferative activity against human NCI-H1975 cells assessed as reduction in cell growth incubated for 72 hrs by cell-titer glo assay; type: functional, cell-based; conditions: NCI-H1975, 72 h
[20] = tested on: A549; assay: Antiproliferative activity against human A549 cells assessed as reduction in cell growth incubated for 72 hrs by MTT assay; type: functional, cell-based; conditions: A549, 72 h
[21] = tested on: K562; assay: Antiproliferative activity against human K562 cells assessed as reduction in cell viability incubated for 72 hrs by MTT assay; type: functional, cell-based; conditions: K562, 72 h
[22] = tested on: PC-3; assay: Antiproliferative activity against human PC-3 cells assessed as reduction in cell viability incubated for 72 hrs by MTT assay; type: functional, cell-based; conditions: PC-3, 72 h
[23] = tested on: PC-3; assay: Cytotoxicity against human PC-3 cells assessed as reduction in cell growth incubated for 48 hrs by MTT assay; type: functional, cell-based; conditions: PC-3, 48 h
[24] = tested on: HepG2; assay: Anticancer activity against human HepG2 cells; type: functional, cell-based
[25] = tested on: SGC-7901; assay: Antiproliferative activity against human SGC-7901 cells; type: functional, cell-based
[26] = Antiproliferative activity against human WS1 cells assessed as reduction in cell viability incubated for 48 hrs by MTT assay; type: toxicity, cell-based
[27] = tested on: A549; assay: Antiproliferative activity against human A549 cells assessed as reduction in cell viability incubated for 48 hrs by MTT assay; type: toxicity, cell-based; conditions: A549, 48 h
[28] = tested on: MCF7; assay: Cytotoxicity against human MCF7 cells assessed as reduction in cell viability incubated for 48 hrs by MTT assay; type: functional, cell-based; conditions: MCF7, 48 h

Compound: O=C(O)c1ccc(C(=O)NCn2cc(CSc3nc(-c4ccccc4)c(-c4ccccc4)n3-c3ccccc3)nn2)cc1
IC50 [1]: 0.38 µM

IC50 [2]: 0.43 µM
Compound: COc1cc([N+](=O)[O-])ccc1-n1cc(CN2C(=O)S/C(=C\c3cn(-c4ccccc4)nc3-c3ccccc3)C2=O)nn1

Compound: C[C@H]1[C@H](C)CC[C@]2(C(=O)O)CC[C@]3(C)C(=CC[C@@H]4[C@@]5(C)CC[C@H](O)C(C)(C)[C@@H]5CC[C@]43C)[C@H]12 [URSOLIC ACID]
IC50 [3]: 25.1 µM | IC50 at 72 h [4]: 90.9 µM

IC50 [5]: 12.1 µM | IC50 [6]: 17.3 µM
Compound: CN(C)c1ccc(/C=N/c2nnc(S[C@@H]3O[C@H](CO)[C@@H](O)[C@H](O)[C@H]3O)s2)cc1

Compound: Cc1nn(-c2ccc(S(N)(=O)=O)cc2)c(N)c1-c1nnc(SC/C(=N\O)c2ccccc2)n1-c1ccccc1
IC50 [7]: 0.33 µM

IC50 [8]: 1.26 µM
Compound: COC(=O)c1ccccc1-n1ncc(CSc2nnc(-c3ccccc3)o2)n1

Compound: C=C(C)[C@@H]1CC[C@]2(COC(=O)c3cn(Cc4ccc(F)cc4)nn3)CC[C@]3(C)[C@H](CC[C@@H]4[C@@]5(C)CC[C@H](OC(=O)c6cnnn6Cc6ccc(F)cc6)C(C)(C)[C@@H]5CC[C@]43C)[C@@H]12
IC50 [9]: 0.05 µM | IC50 [10]: 0.09 µM | IC50 [11]: 0.08 µM

IC50 [12]: 4.12 µM
Compound: CC(=O)OC[C@H]1OC(n2cc(COc3cccc4cccnc34)nn2)[C@@H](OC(C)=O)[C@H](OC(C)=O)[C@H]1OC(C)=O (stereo partly drawn)

IC50 [13]: 0.25 µM
Compound: c1ccc(-n2cc(-c3nc4ccc(C5=NCCN5)cc4s3)nn2)cc1

Compound: Cc1ccc(Cn2cc(Cn3c(Cl)cc(=O)n(C)c3=O)nn2)cc1
IC50 [14]: 4.5 µM | IC50 [15]: 7.7 µM

Compound: CC(=O)O[C@@H]1O[C@H](Cn2cc(COc3cccc4cccnc34)nn2)[C@@H](OC(C)=O)[C@H](OC(C)=O)[C@H]1OC(C)=O
IC50 [16]: 22.3 µM

Compound: O=c1oc2ccccc2c2c1cnn2Cc1cn(-c2ccc(Cl)cc2)nn1
IC50 [17]: 20.2 µM

IC50 [18]: 40 µM | IC50 [19]: 37 µM
Compound: C#Cc1cccc(Nc2ncnc3cc(OCCOC)c(OCCOC)cc23)c1 [ERLOTINIB]

IC50 [20]: 0.57 µM
Compound: COc1ccc2c(-n3cc(-c4cc(OC)c(OC)c(OC)c4)nn3)c(C(=O)Nc3ccccc3)oc2c1

IC50 [21]: 1.3 µM | IC50 [22]: 1.4 µM
Compound: O=C1C(=O)c2cc(Cn3cc(-c4ccccc4)nn3)oc2-c2ccccc21

Compound: NC(=S)N/N=C1/C(=O)N(Cc2cn(CC(=O)c3ccc(Br)cc3)nn2)c2ccccc21
IC50 [23]: 15.3 µM

IC50 [5]: 14.4 µM | IC50 [6]: 21.7 µM
Compound: CN(C)c1ccc(/C=N/c2nnc(S[C@@H]3O[C@H](CO)[C@H](O)[C@H](O)[C@H]3O)s2)cc1

Compound: CC(=O)O[C@H]1CC[C@]2(C)[C@H]3CC=C4[C@@H]5[C@@H](C)[C@H](C)CC[C@]5(C(=O)OCc5cn(Cc6nonc6C)nn5)CC[C@@]4(C)[C@]3(C)CC[C@H]2C1(C)C
IC50 [3]: 1.55 µM | IC50 at 72 h [4]: 10.4 µM

IC50 [24]: 1.78 µM
Compound: Nn1c(Sc2c(O)c3ccccc3oc2=O)nnc1-c1ccc(Cl)cc1

IC50 [25]: 1.05 µM
Compound: CC1(C)CC[C@]23CC[C@]4(C)[C@H](CC[C@@H]5[C@@]6(C)Cc7nnn(CCCCC[P+](c8ccccc8)(c8ccccc8)c8ccccc8)c7C(C)(C)[C@@H]6CC[C@]54C)[C@H]2[C@H]1OC3

Compound: Cc1ccc(NC(=O)c2ccc(CN3CCN(C)CC3)cc2)cc1Nc1nccc(-c2cccnc2)n1 [IMATINIB]
IC50 at 48 h [26]: 9.6 µM | IC50 [27]: 65 µM

Compound: COc1ccc(/C=C\c2cc(OC)c(OC)c(OC)c2)cc1O [COMBRETASTATIN A4]
IC50 [20]: 0.04 µM

Compound: Cc1nccc2c1[nH]c1cc(OCc3cn(-c4cc(=O)oc5ccccc45)nn3)ccc12
IC50 [28]: 6.9 µM

From ChEMBL document CHEMBL5608172, “Structural modification strategies of triazoles in anticancer drug development” (Eur J Med Chem, 2024)
